# Where two headings read alike, the source gives them in different places. Peptide text beside a SMILES is read from it.
# Columns and labels:
# [1] = test system: Monophasic Salmonella Typhimurium; format: cell-based, monophasic variant of Salmonella Typhimurium; details: Monophasic murium, 6 h
# Experimental: (§1) To assess the antimicrobial potential of the designed peptide, different strains of Gram-negative and Gram-positive bacteria were evaluated. Pseudomonas aeruginosa was an ATCC (27853) strain, while Escherichia coli, Listeria monocytogenes, Staphylococcus aureus, Campylobacter jejuni, Salmonella Typhimurium, the monophasic variant of Salmonella Typhimurium and Salmonella Napoli were isolated from food products by the Laboratory of Microbiological Food Control—Department of Food Microbiology of the Istituto Zooprofilattico Sperimentale del Mezzogiorno (IZSM) in Portici (Naples, Italy).
# (§2) In accordance with the Clinical & Laboratory Standards Institute guidelines (CLSI, 2015), the Minimum Bactericidal Concentration (MBC), defined as the minimum concentration of peptide required to kill 99.9% of the tested bacterial suspension within a defined time interval, was determined. L. monocytogenes, E. coli, S. aureus, S. Typhimurium, monophasic variant of S. Typhimurium, S. Napoli, and P. aeruginosa were cultured at 37 °C in buffered peptone water (Thermo Fisher, Milan, Italy), while C. jejuni was cultured in Bolton Broth (Oxoid, Madrid, Spain). The bacterial suspension was collected and then diluted in fresh broth to a final concentration of 1.0 × 10^3 or 1.0 × 10^5 colony-forming units (CFUs)/mL. […] Samples containing only cell suspension and DMSO were used as controls. […]
# S. aureus (MRSA) biofilm = experiment: Antibiofilm activity (crystal violet); format: cell-based, Staphylococcus aureus; details: RKW at ½ and ¼ MIC (25 and 12.5 μM); OD 630 nm vs control; three independent experiments; ANOVA p < 0.01; greatest inhibition at ¼ MIC
# Experimental: (§3) Therefore, the minimum inhibitory concentration (MIC) and MBC were evaluated. […] Subsequently, the antibiofilm activity of the peptide was tested according to Festa et al.. Specifically, two different concentrations of peptide were used, corresponding to ½ and ¼ of the estimated MIC value, which guarantee the optimal bacterial growth conditions necessary to allow biofilm production. Biofilm production (%) was calculated based on Optical Density (measured at 630 nm) outputs, compared to the control group.
# To compare the percentages of biofilm production across different samples, a one-way analysis of variance (ANOVA) was conducted using Prism v. 10.0 (GraphPad, Graph-Pad Software, La Jolla, CA, USA). Significant differences between sample pairs were identified with Tukey’s post hoc test (p < 0.05).
# [2] = 100 µM peptide, 37 °C, 24 h, RP-HPLC C18, absorbance 280 nm, peak area vs time 0, three independent studies
# Experimental: A total of 3.7 mg of peptide was dissolved in 1 mL of Milli-Q H2O to obtain a 2 mM stock solution. A 5% solution of Newborn Calf Serum (NCS) was prepared in Dulbecco’s phosphate-buffered saline (DPBS) (v/v) and then subjected to heat-inactivation by incubating the solution at 57 °C for 45 min (Hi-NCS). Therefore, 100 µM of peptide was incubated in 5% Hi-NCS at 37 °C for 24 h in DPBS. […] Therefore, the samples were centrifuged at 13,000 rpm for 5 min, and the supernatants were diluted in an equal volume of water. Finally, 200 µL of the collected solutions were loaded onto a μBondapak reversed-phase C18 column (Waters, 3.9 mm × 300 mm) connected to an HPLC system (Shimadzu, Milan, Italy), using a linear gradient of acetonitrile (5–95%) in water containing 0.1% TFA at a flow rate of 1 mL/min, and absorbance was detected at 280 nm. […] Samples containing only Hi-NCS were also analyzed. The same experiments were performed in the presence of NCS, not subjected to the heat inactivation treatment. Results are the average of three independent studies.
# [3] = test system: Acinetobacter baumannii (CRAB); format: cell-based
# Experimental: as §3
# [4] = test system: Enterococcus faecium (VREfm); format: cell-based; details: broth microdilution, 96-well, RKW 1-75 μM
# Experimental: as §3
# [5] = test system: Staphylococcus aureus (MRSA); format: cell-based; details: for MIC: broth microdilution, 96-well, RKW 1-75 μM
# Experimental: as §3
# Campylobacter jejuni = format: cell-based; details: 6 h
# Experimental: as §1, §2
# Salmonella Napoli = format: cell-based; details: 6 h
# Experimental: as §1, §2
# [6] = inoculum 5 × 10^3 CFU/mL (3 Log)
# [7] = inoculum 5 × 10^5 CFU/mL (5 Log)
smiles,measurement,setting,value
CC[C@H](C)[C@H](NC(=O)[C@H](Cc1c[nH]c2ccccc12)NC(=O)[C@H](CCCCN)NC(=O)[C@@H](N)CCCNC(=N)N)C(=O)N[C@@H](CC(C)C)C(=O)N[C@@H](CCCCN)C(=O)N[C@@H](Cc1c[nH]c2ccccc12)C(=O)N[C@@H](CC(C)C)C(=O)N[C@@H](CCCNC(=N)N)C(=O)N[C@H](C(=O)N[C@@H](Cc1c[nH]c2ccccc12)C(=O)N[C@@H](CCCCN)C(=O)N[C@@H](CCCCN)C(N)=O)[C@@H](C)O [RKW] (H-RKWILKWLRTWKK-NH2; N-terminus assumed),MBC,[1],20 µM
same,Biofilm production,S. aureus (MRSA) biofilm,significantly inhibited the biofilm production
same,Stability of RKW in heat-inactivated serum (Hi-NCS),"[2]; 5% Hi-NCS (57 °C, 45 min) in DPBS",no peptide breakage
same,"Stability of RKW in serum, not heat-inactivated (NCS)",[2]; 5% NCS in DPBS,complete degradation pattern
same,MBC,[3],50 µM
same,MIC,[4]; [6],20 µM
same,MIC,[4]; [7],20 µM
same,MBC,[5],50 µM
same,MIC,[5]; [6],50 µM
same,MIC,[5]; [7],50 µM
same,MBC,Campylobacter jejuni,80 µM
same,MBC,Salmonella Napoli,20 µM

# — article PMC12292521, “Discovery of a Potent Antimicrobial Peptide Through Rational Design: A New Frontier in Pathogen Control” (Biomolecules, 2025)
